Results as given in patent publication US10168342B2, “Lipid probes and uses thereof” (THE SCRIPPS RESEARCH INSTITUTE, priority 2015, dated 2019).
Where two headings read alike, the source gives them in different places.

Columns and labels:
[1] = target: T1, AEA-DA lipid probe targets in Neuro2a cells (Mus musculus, UniProt P18572)
T1 sequence (P18572 22-389): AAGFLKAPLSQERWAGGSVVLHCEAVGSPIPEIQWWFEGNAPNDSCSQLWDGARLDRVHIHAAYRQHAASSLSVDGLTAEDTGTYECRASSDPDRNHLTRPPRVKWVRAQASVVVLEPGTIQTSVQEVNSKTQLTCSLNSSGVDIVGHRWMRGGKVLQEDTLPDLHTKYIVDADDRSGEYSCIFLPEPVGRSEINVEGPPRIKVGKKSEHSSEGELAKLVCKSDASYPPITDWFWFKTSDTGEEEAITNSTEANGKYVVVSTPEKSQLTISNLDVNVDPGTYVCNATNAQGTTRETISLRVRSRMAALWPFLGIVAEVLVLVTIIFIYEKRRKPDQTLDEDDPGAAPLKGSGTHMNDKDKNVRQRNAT

[2] = target: T2, AEA-DA lipid probe targets in Neuro2a cells (Mus musculus, UniProt P35564)
T2 sequence (P35564 21-591): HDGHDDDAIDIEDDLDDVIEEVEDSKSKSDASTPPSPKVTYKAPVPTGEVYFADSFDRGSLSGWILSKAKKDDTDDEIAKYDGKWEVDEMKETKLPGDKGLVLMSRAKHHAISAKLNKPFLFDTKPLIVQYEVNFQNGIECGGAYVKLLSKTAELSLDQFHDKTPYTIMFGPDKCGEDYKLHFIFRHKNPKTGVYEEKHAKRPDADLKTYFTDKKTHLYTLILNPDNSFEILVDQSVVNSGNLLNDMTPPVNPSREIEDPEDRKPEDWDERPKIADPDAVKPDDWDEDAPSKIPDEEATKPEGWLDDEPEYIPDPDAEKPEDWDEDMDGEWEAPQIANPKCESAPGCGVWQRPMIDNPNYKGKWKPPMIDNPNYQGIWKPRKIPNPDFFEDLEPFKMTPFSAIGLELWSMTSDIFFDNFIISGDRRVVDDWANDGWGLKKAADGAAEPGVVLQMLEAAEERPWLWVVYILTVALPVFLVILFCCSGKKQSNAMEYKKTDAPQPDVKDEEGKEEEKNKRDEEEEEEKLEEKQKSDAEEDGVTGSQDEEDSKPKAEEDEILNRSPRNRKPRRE

[3] = target: T3, AEA-DA lipid probe targets in Neuro2a cells (Mus musculus, UniProt P42125)
T3 sequence (P42125 29-289): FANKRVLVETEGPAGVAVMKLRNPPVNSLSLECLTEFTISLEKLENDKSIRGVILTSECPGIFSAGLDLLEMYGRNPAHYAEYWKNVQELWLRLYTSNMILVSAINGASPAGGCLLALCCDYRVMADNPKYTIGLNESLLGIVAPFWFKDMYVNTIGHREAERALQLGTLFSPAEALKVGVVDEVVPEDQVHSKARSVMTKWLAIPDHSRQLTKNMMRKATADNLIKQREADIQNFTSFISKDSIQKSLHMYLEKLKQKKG

[4] = target: T4, AEA-DA lipid probe targets in Neuro2a cells (Mus musculus, UniProt Q61335)
T4 sequence (Q61335 1-245): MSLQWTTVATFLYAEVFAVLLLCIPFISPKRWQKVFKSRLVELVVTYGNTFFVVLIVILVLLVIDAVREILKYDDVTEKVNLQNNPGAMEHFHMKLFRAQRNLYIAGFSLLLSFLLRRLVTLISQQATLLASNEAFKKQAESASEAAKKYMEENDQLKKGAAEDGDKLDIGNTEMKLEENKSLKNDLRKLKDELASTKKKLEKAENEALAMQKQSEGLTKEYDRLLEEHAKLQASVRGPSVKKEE

[5] = target: AEA-DA lipid probe targets in Neuro2a cells (Mus musculus, UniProt Q8JZU2)
[6] = target: T5, AEA-DA lipid probe targets in Neuro2a cells (Mus musculus, UniProt Q8VC28)
T5 sequence (Q8VC28 1-323): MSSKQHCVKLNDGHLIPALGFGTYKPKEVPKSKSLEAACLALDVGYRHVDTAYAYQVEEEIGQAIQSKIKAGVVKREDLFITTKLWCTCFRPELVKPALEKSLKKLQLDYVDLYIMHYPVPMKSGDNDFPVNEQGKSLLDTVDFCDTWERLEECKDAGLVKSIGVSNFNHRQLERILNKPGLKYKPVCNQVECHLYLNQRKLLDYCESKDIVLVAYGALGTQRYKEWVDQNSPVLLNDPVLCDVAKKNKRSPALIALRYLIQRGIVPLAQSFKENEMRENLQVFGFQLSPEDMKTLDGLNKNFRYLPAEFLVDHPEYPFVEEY

[7] = target: AEA-DA lipid probe targets in Neuro2a cells (Mus musculus, UniProt Q8VDL4)
[8] = target: T6, AEA-DA lipid probe targets in Neuro2a cells (Mus musculus, UniProt Q9CZS1)
T6 sequence (Q9CZS1 20-519): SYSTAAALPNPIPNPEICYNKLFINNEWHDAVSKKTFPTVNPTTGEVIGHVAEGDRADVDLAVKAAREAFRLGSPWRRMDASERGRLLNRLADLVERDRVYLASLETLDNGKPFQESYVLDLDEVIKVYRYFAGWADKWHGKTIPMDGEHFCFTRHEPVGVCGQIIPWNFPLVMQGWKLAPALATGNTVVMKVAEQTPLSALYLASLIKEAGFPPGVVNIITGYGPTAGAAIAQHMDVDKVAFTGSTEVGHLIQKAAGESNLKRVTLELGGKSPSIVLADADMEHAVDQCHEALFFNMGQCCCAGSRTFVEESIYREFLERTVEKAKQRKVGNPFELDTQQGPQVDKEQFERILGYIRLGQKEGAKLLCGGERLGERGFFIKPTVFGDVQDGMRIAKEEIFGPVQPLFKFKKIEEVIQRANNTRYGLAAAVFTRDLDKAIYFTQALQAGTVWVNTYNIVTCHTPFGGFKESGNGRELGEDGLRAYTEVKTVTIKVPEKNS

[9] = target: AEA-DA lipid probe targets in Neuro2a cells (Mus musculus, UniProt Q9D771)
Sequence of AEA-DA lipid probe targets in Neuro2a cells (Mus musculus, UniProt Q9D771) (Q9D771 whole entry): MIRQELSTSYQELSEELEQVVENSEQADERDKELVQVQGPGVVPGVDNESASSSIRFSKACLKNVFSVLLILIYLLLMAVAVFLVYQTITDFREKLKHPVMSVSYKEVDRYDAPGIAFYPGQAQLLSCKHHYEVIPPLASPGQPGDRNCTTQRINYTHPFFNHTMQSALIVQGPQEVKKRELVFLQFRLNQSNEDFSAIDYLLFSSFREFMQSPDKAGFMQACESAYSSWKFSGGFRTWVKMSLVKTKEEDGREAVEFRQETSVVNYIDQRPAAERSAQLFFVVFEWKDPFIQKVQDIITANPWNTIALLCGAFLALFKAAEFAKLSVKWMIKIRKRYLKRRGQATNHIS

Sequence of AEA-DA lipid probe targets in Neuro2a cells (Mus musculus, UniProt Q8VDL4) (Q8VDL4 23-496): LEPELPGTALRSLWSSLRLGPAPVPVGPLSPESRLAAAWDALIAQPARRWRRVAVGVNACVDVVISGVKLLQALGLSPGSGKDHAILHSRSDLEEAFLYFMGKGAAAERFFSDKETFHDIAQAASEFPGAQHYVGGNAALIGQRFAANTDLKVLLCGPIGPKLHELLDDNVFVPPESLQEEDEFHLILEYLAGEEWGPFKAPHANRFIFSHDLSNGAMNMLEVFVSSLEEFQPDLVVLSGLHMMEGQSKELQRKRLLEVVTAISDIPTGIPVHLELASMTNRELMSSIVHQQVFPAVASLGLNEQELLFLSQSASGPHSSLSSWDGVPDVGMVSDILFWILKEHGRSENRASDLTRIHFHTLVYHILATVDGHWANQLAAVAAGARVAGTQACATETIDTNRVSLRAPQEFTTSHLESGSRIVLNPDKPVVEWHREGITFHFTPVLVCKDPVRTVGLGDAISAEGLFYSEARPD
Sequence of AEA-DA lipid probe targets in Neuro2a cells (Mus musculus, UniProt Q8JZU2) (Q8JZU2 14-311): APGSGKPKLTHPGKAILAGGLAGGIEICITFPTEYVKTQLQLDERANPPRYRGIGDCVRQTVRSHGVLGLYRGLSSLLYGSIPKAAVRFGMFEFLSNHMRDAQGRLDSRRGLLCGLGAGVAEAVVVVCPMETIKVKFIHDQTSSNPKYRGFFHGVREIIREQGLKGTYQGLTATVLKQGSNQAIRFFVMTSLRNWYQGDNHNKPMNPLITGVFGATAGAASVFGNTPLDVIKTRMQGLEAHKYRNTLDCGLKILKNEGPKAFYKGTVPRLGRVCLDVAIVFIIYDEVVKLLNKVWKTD

## CCCCC/C=C\C/C=C\C/C=C\C/C=C\CCCC(=O)NCCO [AEA, anandamide, reference compound]
[1]; competitor 200 μM
  SILAC ratio Bsg: 1.3
[2]; competitor 200 μM
  SILAC ratio, Canx: 1.6
[3]; competitor 200 μM
  SILAC ratio, Eci1: 2.0
[4]; competitor 200 μM
  SILAC ratio, Bcap31: 2.3
[5]; competitor 200 μM
  SILAC ratio Slc25a1: 1.2
[6]; competitor 200 μM
  SILAC ratio Akr1c13: 1.7
[7]; competitor 200 μM
  SILAC ratio, Adpgk: 1.8
[8]; competitor 200 μM
  SILAC ratio, Aldh1b1: 2.7
[9]; competitor 200 μM
  SILAC ratio Tmem206: 1.2

## O=C(/C=C/c1cccnc1)NCCCCC1CCN(C(=O)c2ccccc2)CC1 [FK-866, reference compound]
[1]; competitor 25 μM
  SILAC ratio Bsg: 1.0
[2]; competitor 25 μM
  SILAC ratio, Canx: 1.2
[3]; competitor 25 μM
  SILAC ratio, Eci1: 1.2
[4]; competitor 25 μM
  SILAC ratio, Bcap31: 1.6
[5]; competitor 25 μM
  SILAC ratio Slc25a1: 1.2
[6]; competitor 25 μM
  SILAC ratio Akr1c13: 1.0
[7]; competitor 25 μM
  SILAC ratio, Adpgk: 1.2
[8]; competitor 25 μM
  SILAC ratio, Aldh1b1: 1.3
[9]; competitor 25 μM
  SILAC ratio Tmem206: 0.9

## CN1CCN(C(=O)c2c(-c3ccccc3)c3cc([N+](=O)[O-])ccc3n2C)CC1 [KML110, (1-Methyl-5-nitro-3-phenyl-1H-indol-2-yl)(4-methylpiperazin-1-yl)methanone]
[1]; competitor 25 μM
  SILAC ratio Bsg: 1.3
[2]; competitor 25 μM
  SILAC ratio, Canx: 1.6
[3]; competitor 25 μM
  SILAC ratio, Eci1: 1.5
[4]; competitor 25 μM
  SILAC ratio, Bcap31: 2.0
[5]; competitor 25 μM
  SILAC ratio Slc25a1: 1.2
[6]; competitor 25 μM
  SILAC ratio Akr1c13: 1.1
[7]; competitor 25 μM
  SILAC ratio, Adpgk: 1.5
[8]; competitor 25 μM
  SILAC ratio, Aldh1b1: 1.7
[9]; competitor 25 μM
  SILAC ratio Tmem206: 1.2

## CN1CCN(C(=O)c2[nH]c3ccc([N+](=O)[O-])cc3c2-c2ccccc2)CC1 [MJN228, (4-Methylpiperazin-1-yl)(5-nitro-3-phenyl-1H-indol-2-yl)methanone]
[1]; competitor 10 μM
  SILAC ratio Bsg: 1.4
[1]; competitor 25 μM
  SILAC ratio Bsg: 1.6
[1]; competitor 50 μM
  SILAC ratio Bsg: 1.2
[1]; competitor 100 μM
  SILAC ratio Bsg: 1.6
[2]; competitor 10 μM
  SILAC ratio, Canx: 1.3
[2]; competitor 25 μM
  SILAC ratio, Canx: 1.7
[2]; competitor 50 μM
  SILAC ratio, Canx: 1.8
[2]; competitor 100 μM
  SILAC ratio, Canx: 2.6
[3]; competitor 10 μM
  SILAC ratio, Eci1: 1.4
[3]; competitor 25 μM
  SILAC ratio, Eci1: 2.0
[3]; competitor 50 μM
  SILAC ratio, Eci1: 2.4
[3]; competitor 100 μM
  SILAC ratio, Eci1: 3.8
[4]; competitor 10 μM
  SILAC ratio, Bcap31: 2.1
[4]; competitor 25 μM
  SILAC ratio, Bcap31: 2.5
[4]; competitor 50 μM
  SILAC ratio, Bcap31: 3.8
[4]; competitor 100 μM
  SILAC ratio, Bcap31: 4.0
[5]; competitor 10 μM
  SILAC ratio Slc25a1: 1.2
[5]; competitor 25 μM
  SILAC ratio Slc25a1: 1.1
[5]; competitor 50 μM
  SILAC ratio Slc25a1: 1.5
[5]; competitor 100 μM
  SILAC ratio Slc25a1: 1.5
[6]; competitor 25 μM
  SILAC ratio Akr1c13: 1.0
[6]; competitor 50 μM
  SILAC ratio Akr1c13: 1.0
[7]; competitor 10 μM
  SILAC ratio, Adpgk: 1.4
[7]; competitor 25 μM
  SILAC ratio, Adpgk: 1.7
[7]; competitor 50 μM
  SILAC ratio, Adpgk: 1.5
[7]; competitor 100 μM
  SILAC ratio, Adpgk: 2.0
[8]; competitor 10 μM
  SILAC ratio, Aldh1b1: 1.2
[8]; competitor 25 μM
  SILAC ratio, Aldh1b1: 1.6
[8]; competitor 50 μM
  SILAC ratio, Aldh1b1: 2.0
[8]; competitor 100 μM
  SILAC ratio, Aldh1b1: 2.6
[9]; competitor 10 μM
  SILAC ratio Tmem206: 1.1
[9]; competitor 25 μM
  SILAC ratio Tmem206: 1.3
[9]; competitor 100 μM
  SILAC ratio Tmem206: 0.7

## C=CCN(C)CCCCCCOc1ccc(C(=O)c2ccc(Br)cc2)c(F)c1 [Ro 48-8071, reference compound]
[1]; competitor 25 μM
  SILAC ratio Bsg: 1.1
[2]; competitor 25 μM
  SILAC ratio, Canx: 1.2
[3]; competitor 25 μM
  SILAC ratio, Eci1: 0.9
[4]; competitor 25 μM
  SILAC ratio, Bcap31: 1.4
[5]; competitor 25 μM
  SILAC ratio Slc25a1: 1.0
[6]; competitor 25 μM
  SILAC ratio Akr1c13: 1.0
[7]; competitor 25 μM
  SILAC ratio, Adpgk: 1.2
[8]; competitor 25 μM
  SILAC ratio, Aldh1b1: 1.6
[9]; competitor 25 μM
  SILAC ratio Tmem206: 0.6
